Like-named read-outs stand apart in the source and are kept apart here.
Tests used:
solid tumours = details: cited from earlier work
metastatic breast cancer = details: 5-FU combined with cyclophosphamide and methotrexate (CMF); cited from earlier work
[1] = system: advanced and recurring head and neck squamous cell cancer; details: 5-FU in combination therapies with platinum compounds; cited from earlier work
colorectal tumors = details: cited from earlier work
TS = target: T1, TS (Lacticaseibacillus casei, UniProt P00469); details: cited from earlier work
T1 sequence (P00469 1-316): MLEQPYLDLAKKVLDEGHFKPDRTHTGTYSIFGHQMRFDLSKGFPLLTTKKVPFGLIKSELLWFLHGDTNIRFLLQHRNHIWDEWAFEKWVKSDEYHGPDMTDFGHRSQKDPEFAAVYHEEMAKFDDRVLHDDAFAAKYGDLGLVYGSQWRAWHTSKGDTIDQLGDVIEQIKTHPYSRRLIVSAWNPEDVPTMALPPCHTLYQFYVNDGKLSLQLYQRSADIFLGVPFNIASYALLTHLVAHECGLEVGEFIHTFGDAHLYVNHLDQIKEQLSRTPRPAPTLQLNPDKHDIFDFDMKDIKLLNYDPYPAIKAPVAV

[2] = system: previously untreated metastatic colorectal cancer; details: Phase II trial; cited from earlier work
pancreas cancer = details: CoFactor combined with 5-FU, phase I/II; cited from earlier work
colorectal cancer [3] = details: Phase IIb study; cited from earlier work
colorectal cancer [4] = assay: 5-FU bolus followed by multiple IV boluses of [6R]-MTHF in colorectal cancer patients (Phase I/II dose cohort trial); type: in vivo, human; details: initial administration of 5-FU followed by multiple IV boluses of [6R]-MTHF, interval of about 10 min - 4 hours between each bolus
Description: As used herein, the term ORR shall refer to the Objective Response Rate, ie. the proportion of patients with reduction in tumor burden of a predefined amount. This shall be calculated as follows: ORR = Sum of partial responses plus complete responses as per RECIST 1.1 (a set of published rules that define when tumours in cancer patients progress during treatments, the responses being defined as: • Complete Response: Disappearance of all target lesions. • Partial Response: At least a 30% decrease in the sum of the diameters of target lesions, taking as reference the baseline sum diameters. (Eisenhauer EA, Therasse P, Bogaerts J, Schwartz LH, Sargent D, Ford R, et al. New response evaluation criteria in solid tumours: revised RECIST guideline (version 1.1). Eur J Cancer. 2009 Jan; 45(2):228-47)
The safety and efficacy of [6R]-5,10-methylenetetrahydrofolate is analyzed in an open-label, multiple-site, Phase I/II Dose Cohort Trial in combination with a fixed dose of 5-Fluorouracil (5-FU) alone or together with a fixed dose of Oxaliplatin or Irinotecan in patients with stage IV colorectal cancer. […]
[6R]-5,10-Methylenetetrahydrofolic acid is formulated as a lyophylised powder containing 100 mg per vial (calculated as free acid). […]

SMILES: O=c1[nH]cc(F)c(=O)[nH]1 [5-FU, 5-fluorouracil]
- overall response rate (solid tumours; 5-FU alone): 10-15%
- OS (metastatic breast cancer): around 20 months
- reponse rate (metastatic breast cancer): around 20%
- Response rates [1]: around 30%
- survival time [1]: around 6 months
- response rate (colorectal tumors; 5-FU given as a monotherapy): around 10%

SMILES: Nc1nc2c(c(=O)[nH]1)N1CN(c3ccc(C(=O)N[C@@H](CCC(=O)O)C(=O)O)cc3)C[C@@H]1CN2 [(6S)-isomer]
- effect on the natural [6R]-isomer as co-substrate for TS (TS): partial competitive inhibitor

SMILES: Nc1nc2c(c(=O)[nH]1)N1CN(c3ccc(C(=O)N[C@@H](CCC(=O)[O-])C(=O)[O-])cc3)CC1CN2.[Ca+2] (stereo partly shown) [CoFactor®, [6R,S]-5,10-methylene-THF Ca salt]
- response rate [2]: 35%
- clinical benefit, defined as stable disease or tumor response (pancreas cancer): 40 % of patients
- efficacy or safety compared with leucovorin study arm (colorectal cancer [3]): no significant differences

SMILES: Nc1nc2c(c(=O)[nH]1)N(C=O)C(CNc1ccc(C(=O)N[C@@H](CCC(=O)O)C(=O)O)cc1)CN2 (stereo partly shown) [LV, Leucovorin]
- overall response rates (solid tumours; LV added to 5-FU): over 20%
- response rate (colorectal tumors; Leucovorin (LV) added to 5-FU): 21%

SMILES: Nc1nc2c(c(=O)[nH]1)N1CN(c3ccc(C(=O)N[C@@H](CCC(=O)O)C(=O)O)cc3)C[C@H]1CN2 [[6R]-MTHF, [6R]-5,10-methylenetetrahydrofolate]
- ORRs (objective response rates) (colorectal cancer [4]): 50-60%

Reference: patent publication EP3305318A1, “[6R]-5,10-METHYLENETETRAHYDROFOLATE IN 5-FLUOROURACIL BASED CHEMOTHERAPY” (Isofol Medical AB, priority 2016, dated 2018)
